The values below come from ChEMBL document CHEMBL4387741, “Optimization of novel reversible Bruton's tyrosine kinase inhibitors identified using Tethering-fragment-based screens” (Bioorg Med Chem, 2019).

In assay [1] the test system is Fibroblast growth factor receptor 3 (Homo sapiens), P22607 [G697C]. Description: Inhibition of human partial length FGFR3 G697C mutant (R442 to S771 residues) expressed in bacterial expression system at 1 uM by Kinomescan method relative to control.
Assay [2] concerns the target Tyrosine-protein kinase ZAP-70 (Homo sapiens) (UniProt P43403). Description: Inhibition of wild-type human partial length ZAP70 (D20 to G299 residues) expressed in mammalian expression system at 1 uM by Kinomescan method relative to control.
The target of assay [3] is Death-associated protein kinase 3 (Homo sapiens) (UniProt O43293). Description: Inhibition of wild-type human partial length DAPK3 (M1 to A277 residues) expressed in bacterial expression system at 1 uM by Kinomescan method relative to control.
Assay [4] has as its target Vascular endothelial growth factor receptor 2 (Homo sapiens) (UniProt P35968). Description: Inhibition of wild-type human partial length VEGFR2 (R787 to P1253 residues) expressed in mammalian expression system at 1 uM by Kinomescan method relative to control.
Assay [5] deals with Receptor-type tyrosine-protein kinase FLT3 (Homo sapiens), P36888 [UNDEFINED MUTATION]. Description: Inhibition of human partial length FLT3 ITD/D835V double mutant expressed in bacterial expression system at 1 uM by Kinomescan method relative to control.
The test system of assay [6] is Tyrosine-protein kinase ABL1 (Homo sapiens), P00519 [H396P]. Description: Inhibition of human phosphorylated ABL1 H396P mutant (S229 to K512 residues) expressed in mammalian expression system at 1 uM by Kinomescan method relative to control.
Assay [7] has as its target Serine/threonine-protein kinase PknB (Mycobacterium tuberculosis) (UniProt P9WI81). Description: Inhibition of wild-type Mycobacterium tuberculosis partial length PKNB (M1 to G279 residues) expressed in mammalian expression system at 1 uM by Kinomescan method relative to control.
The target in assay [8] is Serine/threonine-protein kinase 24 (Homo sapiens) (UniProt Q9Y6E0). Description: Inhibition of wild-type human partial length MST3 (A30 to S311 residues) expressed in bacterial expression system at 1 uM by Kinomescan method relative to control.
Assay [9] deals with Activin receptor type-1B (Homo sapiens) (UniProt P36896). Description: Inhibition of wild-type human ACVR1B (S187 to I505 residues) expressed in bacterial expression system at 1 uM by Kinomescan method relative to control.
The target of assay [10] is Serine/threonine-protein kinase RIO3 (Homo sapiens) (UniProt O14730). Description: Inhibition of wild-type human full length RIOK3 (M1 to E519 residues) expressed in bacterial expression system at 1 uM by Kinomescan method relative to control.
The target of assay [11] is Focal adhesion kinase 1 (Homo sapiens) (UniProt Q05397). Description: Inhibition of wild-type human partial length FAK (D402 to R696 residues) expressed in bacterial expression system at 1 uM by Kinomescan method relative to control.
The target of assay [12] is Serine/threonine-protein kinase PLK2 (Homo sapiens) (UniProt Q9NYY3). Description: Inhibition of wild-type human partial length PLK2 (H58 to F354 residues) expressed in mammalian expression system at 1 uM by Kinomescan method relative to control.
The target in assay [13] is Mitogen-activated protein kinase 15 (Homo sapiens) (UniProt Q8TD08). Description: Inhibition of wild-type human partial length ERK8 (M1 to P437 residues) expressed in bacterial expression system at 1 uM by Kinomescan method relative to control.
Assay [14] deals with Dual specificity mitogen-activated protein kinase kinase 4 (Homo sapiens) (UniProt P45985). Description: Inhibition of wild-type human partial length MEK4 (S84 to D399 residues) expressed in mammalian expression system at 1 uM by Kinomescan method relative to control.
Assay [15] addresses G protein-coupled receptor kinase 4 (Homo sapiens) (UniProt P32298). Description: Inhibition of wild-type human full length GRK4 (M1 to C578 residues) expressed in bacterial expression system at 1 uM by Kinomescan method relative to control.
The target in assay [16] is Muscle, skeletal receptor tyrosine-protein kinase (Homo sapiens) (UniProt O15146). Description: Inhibition of wild-type human partial length MUSK (M553 to V869 residues) expressed in bacterial expression system at 10 uM by Kinomescan method relative to control.
Assay [17] deals with Casein kinase II subunit alpha' (Homo sapiens) (UniProt P19784). Description: Inhibition of wild-type human full length CSNK2A2 (M1 to R350 residues) expressed in mammalian expression system at 10 uM by Kinomescan method relative to control.
Assay [18] concerns the target Phosphatidylinositol 5-phosphate 4-kinase type-2 beta (Homo sapiens) (UniProt P78356). Description: Inhibition of wild-type human full length PIP5K2B (M1 to T416 residues) expressed in bacterial expression system at 10 uM by Kinomescan method relative to control.
Assay [19] addresses Interferon-induced, double-stranded RNA-activated protein kinase (Homo sapiens) (UniProt P19525). Description: Inhibition of wild-type human partial length PRKR (F247 to C551 residues) expressed in bacterial expression system at 10 uM by Kinomescan method relative to control.
Assay [20] addresses Tyrosine-protein kinase BTK (Homo sapiens, UniProt Q06187). The conditions noted are these: 10 uM.
Assay [21] concerns the target Myosin light chain kinase, smooth muscle (Homo sapiens) (UniProt Q15746). Description: Inhibition of wild-type human full length MYLK (M854 to E1845 residues) expressed in mammalian expression system at 10 uM by Kinomescan method relative to control.
Assay [22] has as its target Tyrosine-protein kinase JAK2 (Homo sapiens) (UniProt O60674). Description: Inhibition of wild-type human partial length JAK2 JH1 catalytic domain (A829 to G1132 residues) expressed in mammalian expression system at 10 uM by Kinomescan method relative to control.
For assay [23], the system named is Phosphatidylinositol 4,5-bisphosphate 3-kinase catalytic subunit alpha isoform (Homo sapiens), P42336 [M1043I]. Description: Inhibition of human partial length PIK3CA M1043I mutant (R108 to N1068 residues) expressed in mammalian expression system at 10 uM by Kinomescan method relative to control.
Assay [24] addresses Ribosomal protein S6 kinase alpha-2 (Homo sapiens) (UniProt Q15349). Description: Inhibition of wild-type human partial length N-terminal RSK3 kinase domain 1 (M1 to Q385 residues) expressed in bacterial expression system at 10 uM by Kinomescan method relative to control.
Assay [25] deals with Ribosomal protein S6 kinase alpha-6 (Homo sapiens) (UniProt Q9UK32). Description: Inhibition of wild-type human partial length C-terminal RSK4 kinase domain 2 (I401 to Y711 residues) expressed in bacterial expression system at 10 uM by Kinomescan method relative to control.
Assay [26] addresses cAMP-dependent protein kinase catalytic subunit beta (Homo sapiens) (UniProt P22694). Description: Inhibition of wild-type human full length PKAC-beta (M1 to F351 residues) expressed in bacterial expression system at 10 uM by Kinomescan method relative to control.
Assay [27] concerns the target Dual specificity protein kinase CLK1 (Homo sapiens) (UniProt P49759). Description: Inhibition of wild-type human full length CLK1 (M1 to I484 residues) expressed in bacterial expression system at 10 uM by Kinomescan method relative to control.

One may read the inhibition as the change of the read-out against control, counted positive when it falls. A high value points to strong suppression. `O=C(Nc1cccc([C@@H]2CN(c3ncnc4[nH]ccc34)CCN2CCO)c1)Nc1c(F)cccc1N1CCCC1`: the inhibition in assay [1] amounted to 100%; in assay [2] it was 80%; in [3], 5.2%; in assay [4], 30%; in [5], 3.5%; in assay [6], 71%. Also, the inhibition in assay [7] came to 80%; in assay [8] it was 73%; in assay [9] it was 83%; in assay [10] it was 26%; in assay [11], 90%; in assay [12] it was 87%. Besides, the values for the inhibition in assay [13], in assay [14] and in assay [15] were 81%, 7.2% and 66%, respectively.
As for `O=C(Nc1cccc([C@H]2CCCN(c3ncnc4[nH]ccc34)C2)c1)Nc1ccccc1N1CCCC1`, the inhibition was found to be 97% in assay [16]; 91% in assay [17]; 4.7% in assay [18]; 87% in assay [19]; 0.6% in [20]; 83% in assay [21]. The inhibition in assay [22] amounted to 0%; in [23], 93%; in assay [24] it was 78%; in assay [25] it was 50%; in assay [26] it was 100%; in assay [27] it was 68%.
